In PubChem BioAssay AID248 (DTP/NCI, 2004):
Several values for one entry are separate records, joined by “and”; a condition that tells them apart may be missing. Equal entries are not always repeated. Toxic doses and inconclusive results are not listed. Cut-off read from the data, not from the text of the source: active = T/C of 150% or more; inactive = T/C below 125%.

Tested on: L1210 leukemia ip in BDF1 mice, survival T/C
Test: NCI In Vivo Anticancer Drug Screen. Data for tumor model L1210 Leukemia (intraperitoneal) in B6D2F1 (BDF1) mice
Conditions: endpoint: mean survival time, higher = longer survival
Summary of the method: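 Transplanted-tumor mice were given test agent; controls received vehicle only. Survival readings from the two groups were divided (treated over control).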

[1] = dose: 50.0 mg/kg/injection, schedule: Q01DX001 (ip), vehicle: carboxymethylcellulose (CMC)
[2] = dose: 100.0 mg/kg/injection, schedule: Q01DX001 (ip), vehicle: carboxymethylcellulose (CMC)
[3] = dose: 200.0 mg/kg/injection, schedule: Q01DX001 (ip), vehicle: carboxymethylcellulose (CMC)
[4] = dose: 400.0 mg/kg/injection, schedule: Q01DX001 (ip), vehicle: carboxymethylcellulose (CMC)
[5] = dose: 100.0 mg/kg/injection, schedule: Q01DX001 (ip), vehicle: saline
[6] = dose: 100.0 mg/kg/injection, schedule: Q01DX009 (ip), vehicle: saline with Tween-80
[7] = dose: 100.0 mg/kg/injection, schedule: Q04DX003 (ip), vehicle: saline
[8] = dose: 200.0 mg/kg/injection, schedule: Q01DX001 (ip), vehicle: saline
[9] = dose: 200.0 mg/kg/injection, schedule: Q01DX009 (ip), vehicle: saline with Tween-80
[10] = dose: 400.0 mg/kg/injection, schedule: Q01DX001 (ip), vehicle: saline
[11] = dose: 400.0 mg/kg/injection, schedule: Q01DX009 (ip), vehicle: saline with Tween-80
[12] = dose: 100.0 mg/kg/injection, schedule: Q04DX003 (ip), vehicle: Klucel (hydroxypropylcellulose) (HPC)
[13] = dose: 200.0 mg/kg/injection, schedule: Q04DX003 (ip), vehicle: Klucel (hydroxypropylcellulose) (HPC)
[14] = dose: 100.0 mg/kg/injection, schedule: Q04DX003 (ip), vehicle: saline with Tween-80
[15] = dose: 200.0 mg/kg/injection, schedule: Q04DX003 (ip), vehicle: saline with Tween-80
[16] = dose: 400.0 mg/kg/injection, schedule: Q04DX003 (ip), vehicle: saline with Tween-80
[17] = dose: 400.0 mg/kg/injection, schedule: Q04DX003 (ip), vehicle: Klucel (hydroxypropylcellulose) (HPC)
[18] = dose: 50.0 mg/kg/injection, schedule: Q01DX001 (ip), vehicle: saline
[19] = dose: 100.0 mg/kg/injection, schedule: Q01DX001 (ip), vehicle: Klucel (hydroxypropylcellulose) (HPC)
[20] = dose: 200.0 mg/kg/injection, schedule: Q01DX001 (ip), vehicle: Klucel (hydroxypropylcellulose) (HPC)
[21] = dose: 400.0 mg/kg/injection, schedule: Q01DX001 (ip), vehicle: Klucel (hydroxypropylcellulose) (HPC)
[22] = dose: 75.0 mg/kg/injection, schedule: Q01DX001 (ip), vehicle: saline

Measured: T/C

CCCCCCCCP(=O)(CCCCCCCC)CCCCCCCC
inactive: [1] 95 % of control | [2] 95 % of control | [3] 95 % of control | [4] 101 % of control

COc1ccc(C(=O)CSc2cc[o+]cc2)cc1
inactive: [5] 95 % of control | [6] 94 % of control | [7] 95 % of control | [8] 97 % of control | [9] 104 % of control | dose: 200.0 mg/kg/injection, schedule: Q04DX003 (ip), vehicle: saline 92 % of control | [10] 106 % of control | [11] 90 % of control | dose: 400.0 mg/kg/injection, schedule: Q04DX003 (ip), vehicle: saline 97 % of control

O=C(O)CNC(=O)CCl
inactive: dose: 50.0 mg/kg/injection, schedule: Q01DX009 (ip), vehicle: Klucel (hydroxypropylcellulose) (HPC) 87 % of control | dose: 100.0 mg/kg/injection, schedule: Q01DX009 (ip), vehicle: Klucel (hydroxypropylcellulose) (HPC) 90 % of control | [12] 94 % of control | [13] 89 % of control

Cc1nnc(C)n1N
inactive: [5] 106 % of control | [8] 106 % of control | [10] 95 % of control

N#CCCP(=O)(CCC#N)CCP(=O)(CCC#N)CCC#N
inactive: [14] 91 % of control | [15] 91 % of control | [16] 94 % of control

[N-]=Cc1c(O)cccc1Cl.[N-]=Cc1cc(Cl)ccc1O.[Ni+2]
inactive: dose: 6.25 mg/kg/injection, schedule: Q01DX009 (ip), vehicle: Klucel (hydroxypropylcellulose) (HPC) 96 % of control | dose: 12.5 mg/kg/injection, schedule: Q01DX009 (ip), vehicle: Klucel (hydroxypropylcellulose) (HPC) 93 % of control | dose: 25.0 mg/kg/injection, schedule: Q01DX009 (ip), vehicle: Klucel (hydroxypropylcellulose) (HPC) 95 % of control | [12] 97 % of control | [13] 87 % of control | [17] 86 % of control

Cc1cc(N(CCCl)CCCl)ccc1C=Nc1ccc(-c2csc(COc3ccccc3)n2)c(Cl)c1
inactive: [2] 95 % of control | [3] 108 % of control | [4] 103 % of control

O=[N+]([O-])c1cccc2c1C1c3ccccc3C2c2ccccc21
inactive: [1] 93 % of control | [2] 93 % of control | [3] 96 % of control | [4] 96 % of control

C/C=C/C=C/COC(=O)CCCCCC
inactive: dose: 100.0 mg/kg/injection, schedule: Q04DX002 (ip), vehicle: saline 98 % of control and 108 % of control | dose: 200.0 mg/kg/injection, schedule: Q04DX002 (ip), vehicle: saline 108 % of control and 119 % of control | dose: 400.0 mg/kg/injection, schedule: Q04DX002 (ip), vehicle: saline 107 % of control | dose: 600.0 mg/kg/injection, schedule: Q04DX002 (ip), vehicle: saline 98 % of control

S=P(NC1CCCCC1)(NC1CCCCC1)NC1CCCCC1
inactive: [5] 95 % of control | [14] 101 % of control | [8] 95 % of control | [15] 97 % of control | [10] 90 % of control | [16] 97 % of control

CCOC(=O)/C=C/C(=O)O.[Co]
inactive: dose: 12.5 mg/kg/injection, schedule: Q04DX003 (ip), vehicle: saline 114 % of control | dose: 25.0 mg/kg/injection, schedule: Q04DX003 (ip), vehicle: saline 118 % of control | dose: 50.0 mg/kg/injection, schedule: Q04DX003 (ip), vehicle: saline 116 % of control | [7] 118 % of control and 121 % of control

CCOc1nc(OCC)c2[nH]c(C(=O)O)c(Br)c2n1
inactive: [18] 107 % of control | [5] 100 % of control | [8] 105 % of control | [10] 107 % of control

Fc1ccc(C(=S)Nc2ccccc2)cc1
inactive: dose: 100.0 mg/kg/injection, schedule: Q01DX001 (ip), vehicle: acetone 104 % of control | dose: 200.0 mg/kg/injection, schedule: Q01DX001 (ip), vehicle: acetone 98 % of control | dose: 400.0 mg/kg/injection, schedule: Q01DX001 (ip), vehicle: acetone 92 % of control

CN=C(N/N=C/c1ccccc1)N(C)C
inactive: dose: 25.0 mg/kg/injection, schedule: Q04DX003 (ip), vehicle: Klucel (hydroxypropylcellulose) (HPC) 107 % of control | dose: 50.0 mg/kg/injection, schedule: Q04DX003 (ip), vehicle: Klucel (hydroxypropylcellulose) (HPC) 100 % of control | dose: 87.5 mg/kg/injection, schedule: Q04DX003 (ip), vehicle: Klucel (hydroxypropylcellulose) (HPC) 98 % of control

NC(C(=O)O)c1cccc(Cl)c1 (stereo unspecified)
inactive: [19] 123 % of control | [12] 100 % of control | [20] 109 % of control | [13] 91 % of control | [21] 105 % of control | [17] 100 % of control

CC(C)=CCC(=O)OC(CC=C(C)C)(c1ccccc1)C(C)CN(C)C (stereo unspecified)
inactive: dose: 25.0 mg/kg/injection, schedule: Q01DX009 (ip), vehicle: saline 100 % of control | dose: 50.0 mg/kg/injection, schedule: Q01DX009 (ip), vehicle: saline 90 % of control | dose: 100.0 mg/kg/injection, schedule: Q01DX009 (ip), vehicle: saline 89 % of control

Cc1nc(SCc2ccc(Cl)cc2)[nH]c(=O)c1CCO
inactive: [6] 92 % of control | [9] 92 % of control | [11] 92 % of control

Nc1ccc(Cc2ccc(N)cc2)cc1
inactive: dose: 25.0 mg/kg/injection, schedule: Q01DX009 (ip), vehicle: gum acacia 95 % of control | dose: 50.0 mg/kg/injection, schedule: Q01DX009 (ip), vehicle: gum acacia 105 % of control | dose: 100.0 mg/kg/injection, schedule: Q01DX009 (ip), vehicle: gum acacia 105 % of control and 112 % of control

CCC1CN1P1(=O)OCC(C)(N)CO1 (stereo unspecified)
inactive: [2] 104 % of control | [3] 101 % of control | [4] 101 % of control

COC(=O)Nc1ccccc1
inactive: [19] 97 % of control | dose: 100.0 mg/kg/injection, schedule: Q04DX002 (ip), vehicle: gum acacia 113 % of control | [20] 98 % of control | dose: 200.0 mg/kg/injection, schedule: Q04DX002 (ip), vehicle: gum acacia 100 % of control | [21] 101 % of control | dose: 400.0 mg/kg/injection, schedule: Q04DX002 (ip), vehicle: gum acacia 103 % of control

C=CCOC(=O)C1OC12CCCCC2 (stereo unspecified)
inactive: [18] 104 % of control | [5] 95 % of control | [8] 101 % of control | [10] 98 % of control

Cc1cccc(Cl)c1NC(=O)Nc1cccc(O)c1
inactive: [6] 100 % of control | [9] 100 % of control | [11] 97 % of control

O=[N+]([O-])c1ccc(N=C(Cl)N(c2ccccc2)c2ccccc2)cc1
inactive: [5] 101 % of control | [8] 109 % of control | [10] 109 % of control

C[N+](C)(C)CCC1CCCCC1
inactive: [22] 102 % of control

CC(C)CCCC(C)C1CCC2C3CC(=O)NC4CC(Cl)CCC4(C)C3CCC12C (stereo unspecified)
inactive: [5] 89 % of control | [7] 86 % of control | [8] 93 % of control | [10] 91 % of control

CN(C)CCc1ccc2cc3ccc(CCN(C)C)cc3nc2c1
inactive: dose: 6.25 mg/kg/injection, schedule: Q04DX002 (ip), vehicle: saline with Tween-80 102 % of control | dose: 12.5 mg/kg/injection, schedule: Q04DX002 (ip), vehicle: saline with Tween-80 105 % of control | dose: 25.0 mg/kg/injection, schedule: Q04DX002 (ip), vehicle: saline with Tween-80 105 % of control

CC(C)CC(CC(C)C)NCC(C)OC(=O)C(c1ccccc1)c1ccccc1 (stereo unspecified)
inactive: [22] 102 % of control | dose: 150.0 mg/kg/injection, schedule: Q01DX001 (ip), vehicle: saline 98 % of control | dose: 300.0 mg/kg/injection, schedule: Q01DX001 (ip), vehicle: saline 102 % of control

COc1ccc(CN2CCCN(Cc3ccc(OC)cc3OC)C2c2ccc(N(CCCl)CCCl)cc2)c(OC)c1
inactive: [1] 106 % of control | [2] 101 % of control | [3] 115 % of control | [4] 106 % of control

N#Cc1cccc[n+]1Cc1ccc([N+](=O)[O-])cc1
inactive: [14] 97 % of control

O=C1[O][Hg][c]2cccc3cccc1c23
inactive: dose: 5.0 mg/kg/injection, schedule: Q04DX003 (ip), vehicle: saline with Tween-80 101 % of control | dose: 10.0 mg/kg/injection, schedule: Q04DX003 (ip), vehicle: saline with Tween-80 95 % of control

CCOC(=O)c1cccc(N(CCO)CCO)c1
inactive: [18] 103 % of control | [5] 97 % of control | [8] 103 % of control | [10] 103 % of control
